Patent US8410163B2, “Substituted 4-amino-5-benzoyl-2-(phenylamino)thiophene-3-carbonitriles and substituted 4-amino-5-benzoyl-2-(phenylamino)thiophene-3-carboxamides as tubulin polymerization inhibitors” (Telik, Inc., priority 2009, dated 2013)
Where two headings read alike, the source gives them in different places.

Legend:
[1] = tested on: A549 (human lung adenocarcinoma); experiment: Cytotoxicity assay (CellTiter-Glo), A549; type: cell-based; conditions: 72 h, A549 cells, three days culture, rounded to 1 significant figure
Method: (§1) The cell lines A549 (human lung adenocarcinoma), OVCAR-3 (human ovarian carcinoma), HL60 (human promyelocytic leukemia), DLD1 (human colon adenocarcinoma) and HCT116 (human colon carcinoma) were obtained from the American Type Culture Collection, Manassas, Va., U.S.A. All products were used in accordance with manufacturer's directions. The histone phosphorylation (p-H3) assay was conducted in duplicate and the cytotoxicity assays were conducted in triplicate, in each case with solvent control.
(§2) Log-phase cells were trypsinized, collected by centrifugation, and resuspended in a small volume of fresh medium, and the density of viable cells was determined following Trypan Blue staining. Cells were diluted in fresh media, the test compounds (concentrations between 0.1 μM and 200 μM, dissolved in DMSO, 50 μL) added immediately after dilution to achieve a final DMSO concentration of 0.5%, then the suspensions added at 150 μL/well to 96-well plates, and incubated overnight to allow attachment in the case of adherent cells. The cells were cultured for three days (about three doubling times). The cells were then collected by centrifugation, and 100 μL of the culture supernatant was replaced by the CellTiter-Glo reagent. After incubation for 15 minutes at room temperature, the plate was read with a luminometer. […] The table gives cytotoxicity IC50s in μM, rounded to 1 significant figure.

[2] = tested on: OVCAR-3 (human ovarian carcinoma); experiment: Cytotoxicity assay (CellTiter-Glo), OVCAR-3; type: cell-based; conditions: 72 h, OVCAR-3 cells, three days culture, rounded to 1 significant figure
Method: as §1, §2

[3] = tested on: HL60 (human promyelocytic leukemia); experiment: Cytotoxicity assay (CellTiter-Glo), HL-60; type: cell-based; conditions: 72 h, HL-60 cells, three days culture, rounded to 1 significant figure
Method: as §1, §2

[4] = tested on: DLD1 (human colon adenocarcinoma); experiment: Cytotoxicity assay (CellTiter-Glo), DLD1; type: cell-based; conditions: DLD-1, 72 h, DLD1 cells, three days culture, rounded to 1 significant figure
Method: as §1, §2

[5] = tested on: HCT116 (human colon carcinoma); experiment: Cytotoxicity assay (CellTiter-Glo), HCT116; type: cell-based; conditions: HCT-116, 72 h, HCT116 cells, three days culture, rounded to 1 significant figure
Method: as §1, §2

p-H3 in A549 cells = experiment: Histone phosphorylation (p-H3) assay; type: cell-based; conditions: Homo sapiens, 4 hr incubation, dot-blot
Method: as §1
Log phase A549 cells were seeded in a 96-well plate and allowed to attach overnight. The test compounds were diluted in DMSO (8 concentrations with serial 3-fold dilutions) and added to the cells (0.5% DMSO final concentration), and the cells incubated for 4 hr. The cells were then washed three times with cold phosphate-buffered saline (PBS), and lysis buffer was added. After 30 min shaking at 4° C. and centrifugation, the supernatants were transferred to a nitrocellulose membrane by a “dot-blot” apparatus. After washing the wells, the membrane was processed for Western blot. Detection of p-H3 and β-actin was performed on the same membrane with primary rabbit anti-p-H3 and mouse anti-β-actin antibodies followed by secondary goat anti-rabbit IRDye800 and goat anti-mouse AlexaFluor 680 antibodies. The membranes were scanned on an Odyssey scanner.

tubulin = experiment: Inhibition of tubulin polymerization, cell-free fluorescence assay; type: biochemical
[6] = tested on: HL60 (human promyelocytic leukemia) xenograft; experiment: HL60 xenograft assay, oral administration; type: in vivo; conditions: Mus musculus, HL-60, po, nu/nu mice, read-out: inhibition of tumor growth compared to vehicle
Method: (§3) Male athymic nu/nu mice, 6-8 weeks old (about 20 g), were implanted subcutaneously in the right fore flank with about 1×10^7 cells of the HL60 (human promyelocytic leukemia) line that had been grown in antibiotic-free medium for at least two passages. About 6 days after tumor implantation, when the tumor weight was about 50-250 mg, the mice were assigned to treatment groups. Test compounds were suspended at 20 mg/mL in 0.55 wt. % aqueous carboxymethylcellulose. Groups of mice were treated with compounds 2A, 9A, and 12A at 200 mg/Kg by gavage once/day on days 1-5 and 8-10 from the start of treatment, with vehicle control. Tumor growth inhibition was measured on the last day of treatment.
The experiment was conducted generally as described in In vivo Example 1. Groups of mice were treated with compounds 5A, 6A, 7A, 8A, and 10A at 200 mg/Kg by gavage once/day on days 1-5 and 8-10 from the start of treatment, with vehicle control. Tumor growth inhibition was measured the day after the last day of treatment.

[7] = tested on: HCT116 (human colon carcinoma) xenograft; experiment: HCT116 xenograft assay, oral administration; type: in vivo; conditions: nu/nu mice, 200 mg/Kg by gavage once/day days 1-5 and 8-12, measured 2 days after the last day of treatment
Method: as §3, with “the HCT116” for “the HL60”, “(human colon carcinoma)” for “(human promyelocytic leukemia)”, “About 14-21” for “About 6”, “tumor transplantation,” for “tumor implantation,”, “and 8-12” for “and 8-10”, “measured 2 days after” for “measured on”

[8] = tested on: tubulin polymerization in A549 cells; experiment: Inhibition of tubulin polymerization in A549 cells by immunomicroscopy and cell fractionation; type: cell-based, human

SMILES | IC50 [1] | IC50 [2] | IC50 [3] | IC50 [4] | IC50 [5] | IC50 (p-H3 in A549 cells) | inhibition of tubulin polymerization (cell-free) (tubulin) | inhibition in vivo at 200 mg/kg ([6]; 200 mg/Kg by gavage once/day days 1-5 and 8-10, measured on the last day of treatment (In vivo Example 1)) | inhibition of tumor growth compared to vehicle [7] | activity in tubulin polymerization assay in A549 cells [8] | IC50 ([8]; read-out: IC50, inhibition of tubulin polymerization in A549 cells) | inhibition in vivo at 200 mg/kg ([6]; 200 mg/Kg by gavage once/day days 1-5 and 8-10, measured the day after the last day of treatment (In vivo Example 3))
COc1ccc(Nc2sc(C(=O)c3ccc(Cl)cc3)c(N)c2C#N)cc1 [Compound 2A] | 10 nM | 20 nM | 10 nM | 6 nM | 10 nM | 20 nM | inhibition of tubulin polymerization | 46% | 35% | – | – | –
CCc1ccc(Nc2sc(C(=O)c3ccc(Cl)cc3)c(N)c2C#N)cc1 [Compound 15A, 4-amino-5-(4-chlorobenzoyl)-2-[(4-ethylphenyl)amino]thiophene-3-carbonitrile] | 100 nM | – | 90 nM | – | – | 500 nM | – | – | – | – | – | –
N#Cc1ccc(Nc2sc(C(=O)c3ccc(Cl)cc3)c(N)c2C#N)cc1 [Compound 40A] | 2000 nM | – | – | – | – | – | – | – | – | inactive | – | –
COc1ccc(Nc2sc(C(=O)c3ccc(OC)cc3OC)c(N)c2C#N)cc1 [Compound 7A, 4-amino-5-(2,4-dimethoxybenzoyl)-2-[(4-methoxyphenyl)amino]thiophene-3-carbonitrile] | 30 nM | – | 20 nM | – | 10 nM | – | – | – | – | – | 9 nM | 45%
